Data taken from ChEMBL document CHEMBL4261645, “Isolation, leishmanicidal evaluation and molecular docking simulations of piperidine alkaloids from Senna spectabilis” (Bioorg Med Chem, 2018).
≈ marks a conversion by molar mass, not a printed value.

Assays:
[1] = test system: Leishmania amazonensis; experiment: Leishmanicidal activity against Leishmania amazonensis PH8 promastigotes after 48 hrs by spectrophotometric analysis; type: functional, organism-based; conditions: PH8, 48 h
[2] = Cytotoxicity against African green monkey Vero cells after 48 hrs by resazurin dye-based spectrophotometric analysis; type: cell-based; conditions: chlorocebus sabaeus
[3] = Log10 selectivity index, ratio of CC50 for African green monkey Vero cells to IC50 for Leishmania amazonensis PH8 promastigotes; conditions: Vero cells versus Leishmania amazonensis PH8 promastigotes
[4] = test system: Leishmania major; experiment: Leishmanicidal activity against Leishmania major MHOM/SU/1973/5-ASKH promastigotes after 48 hrs by cell counting method; type: functional, organism-based

Structure (SMILES) | IC50 [1] | CC50 at 48 h [2] | log10 selectivity index [3] | IC50 [4]
CC(=O)CCCCCCCCCCCC[C@H]1CC[C@@H](O)[C@@H](C)N1 | 15.8 µg/mL (≈ 48.6 µM) | 66.7 µg/mL (≈ 205 µM) | 0.62 | 24.9 µg/mL (≈ 76.5 µM)
CC(=O)CCCCCCCCCCCC[C@H]1CC[C@@H](OC(C)=O)[C@@H](C)N1 | 25.9 to 26.3 µg/mL (≈ 70.6 to 71.6 µM) | 255 to 274 µg/mL (≈ 694 to 744 µM) | 0.99 to 1.02 | 
CC(=O)CCCCCCCCCC[C@H]1CC[C@@H](OC(C)=O)[C@@H](C)N1 | 30.2 to 30.7 µg/mL (≈ 89.1 to 90.5 µM) | 357 to 361 µg/mL (≈ 1050 to 1060 µM) | 1.06 to 1.07 | 
C[C@@H]1[C@H](O)[C@@H](C)/C=C/C=C/C=C/C=C/C=C/C=C/C=C/[C@H](O[C@@H]2O[C@H](C)[C@@H](O)[C@H](N)[C@@H]2O)C[C@@H]2O[C@](O)(C[C@@H](O)C[C@@H](O)[C@H](O)CC[C@@H](O)C[C@@H](O)CC(=O)O[C@H]1C)C[C@H](O)[C@H]2C(=O)O [AMPHOTERICIN B] | 0.29 µg/mL (≈ 0.314 µM) |  |  | 
CC(=O)CCCCCCCCCC[C@H]1CC[C@@H](O)[C@@H](C)N1 [CASSINE] | 25.2 µg/mL (≈ 84.6 µM) | 249 µg/mL (≈ 838 µM) | 0.99 | 1.6 µg/mL (≈ 5.38 µM)
